Laboratory results reported in patent publication EP4745153A1, “GLP-1, GIP AND GCG RECEPTOR […] USE THEREOF” (Jiangsu Hengrui Pharmaceuticals Co., Ltd., priority 2023, dated 2025).
Where two headings read alike, the source gives them in different places. Starred links: 1 amine or outer side, 2 acyl side, 3 side chain; linkers in the order of their positions; H or OH if unused. Non-standard residues stand in square brackets, D forms with d. Residues, ends and D or L forms follow the SMILES beside them. Groups on a side chain read outwards from the residue. ξ: configuration not given here. *: point of attachment. C20 diacid = O=C(O)CCCCCCCCCCCCCCCCCCC(=O)*; γGlu = O=C(O)[C@H](CCC(=O)[*:2])N[*:1]; αMeL = CC(C)C[C@](C)(N)C(=O)O; αMeK = C[C@](N)(CCCCN)C(=O)O; ξIva = CCC(C)(N)C(=O)O; AEEA = NCCOCCOCC(=O)O; Aib = CC(C)(N)C(=O)O

Legend:
[1] = target: T1, human GIPR (Homo sapiens, UniProt P48546); assay: cAMP HTRF agonist activity assay in CHO-K1 cells expressing GIPR; format: cell-based; settings: read-out: Activity against human GIPR (EC50 nM); also: 5% FBS, 0.1% Casein
T1 construct: expressed in transfected cells; host or cells: CHO-K1 clonal cell line
T1 sequence (P48546 22-466): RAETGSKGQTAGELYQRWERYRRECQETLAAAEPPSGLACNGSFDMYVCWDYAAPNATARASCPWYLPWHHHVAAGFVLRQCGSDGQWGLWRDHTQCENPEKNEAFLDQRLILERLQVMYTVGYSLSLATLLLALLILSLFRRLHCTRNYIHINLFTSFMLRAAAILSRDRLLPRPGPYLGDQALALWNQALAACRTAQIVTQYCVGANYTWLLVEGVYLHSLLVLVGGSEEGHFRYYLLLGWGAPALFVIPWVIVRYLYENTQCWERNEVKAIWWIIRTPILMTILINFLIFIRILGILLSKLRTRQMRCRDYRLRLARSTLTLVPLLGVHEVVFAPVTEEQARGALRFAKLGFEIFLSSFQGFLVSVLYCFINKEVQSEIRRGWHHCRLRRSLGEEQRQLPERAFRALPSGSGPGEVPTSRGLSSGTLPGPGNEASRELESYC
Method in brief: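 Clonal CHO-K1 lines, 5000 cells/well, exposed to polypeptides for 30 min at 37°C. Intracellular cAMP read by HTRF (cAMP-d2 conjugate plus anti-cAMP-Eu cryptate in lysis buffer). Relative EC50 from four-parameter nonlinear fit of percent maximum response against concentration.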

[2] = target: T2, human GCGR (Homo sapiens, UniProt P47871); assay: cAMP HTRF agonist activity assay in CHO-K1 cells expressing GCGR; format: cell-based; as to Activity against human GCGR (EC50 nM): 5% FBS, 0.1% Casein
T2 construct: expressed in transfected cells; host or cells: CHO-K1 clonal cell line
Procedure: (§1) Functional activity was determined in CHO-K1 clonal cell lines expressing GIPR, GLP-1R, and GCGR. […] Each recipient cell (5000 cells/well) was added to an SV 96-well plate (Cisbio, 66PL96025) and incubated with the prepared polypeptide at 37°Cfor 30 min. The resulting increase in intracellular cAMP was quantitatively measured using the cAMP-GS dynamic HTRF assay kit (Cisbio, 62AM4PEJ). Briefly, the intracellular cAMP levels were determined by adding cAMP-d2 conjugate in cell lysis buffer, followed by the antibody anti-cAMP-Eu cryptate (also in cell lysis buffer).
(§2) Using the maximum response percentage vs. the added polypeptide concentration, the relative EC50 values were derived through nonlinear regression analysis and fitted to a four-parameter logarithmic equation. For specific data, refer to Tables 7-1 to 7-8 below. […]

[3] = target: T3, human GLP-1R (Homo sapiens, UniProt P43220); assay: cAMP HTRF agonist activity assay in CHO-K1 cells expressing GLP-1R; format: cell-based; settings: read-out: Activity against human GLP-1R (EC50 nM); also: 5% FBS, 0.1% Casein
T3 construct: expressed in transfected cells; host or cells: CHO-K1 clonal cell line
Procedure: as §1, §2

[4] = Pharmacokinetics in mice after single intravenous injection; design: species or system C57 mice; settings: in vivo
Method in brief: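 Male C57 mice (~25 g, 4-6 weeks, n=3) received a single i.v. dose of 200 nmol/kg in 1×PBS. Plasma collected from 5 min to 72 h was methanol-precipitated with verapamil internal standard and quantified by LC-MS (ESI positive, MRM); PK parameters were calculated by PKSolver.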

[5] = mouse, male C57 mice, single intravenous dose 200 nmol/kg, plasma

T2 sequence (P47871 26-477): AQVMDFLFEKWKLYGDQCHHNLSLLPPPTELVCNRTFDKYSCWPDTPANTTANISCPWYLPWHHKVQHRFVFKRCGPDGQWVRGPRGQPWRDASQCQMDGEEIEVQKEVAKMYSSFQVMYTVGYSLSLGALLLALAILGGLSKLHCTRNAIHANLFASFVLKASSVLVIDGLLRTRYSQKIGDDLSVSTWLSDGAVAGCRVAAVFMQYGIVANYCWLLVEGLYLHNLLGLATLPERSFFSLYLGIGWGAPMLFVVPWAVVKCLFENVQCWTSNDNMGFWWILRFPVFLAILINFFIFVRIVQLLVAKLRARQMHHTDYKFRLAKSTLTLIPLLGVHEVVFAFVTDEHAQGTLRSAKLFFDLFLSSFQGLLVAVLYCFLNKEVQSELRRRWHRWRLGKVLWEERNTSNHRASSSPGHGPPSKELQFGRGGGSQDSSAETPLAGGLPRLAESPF
T3 sequence (P43220 24-463): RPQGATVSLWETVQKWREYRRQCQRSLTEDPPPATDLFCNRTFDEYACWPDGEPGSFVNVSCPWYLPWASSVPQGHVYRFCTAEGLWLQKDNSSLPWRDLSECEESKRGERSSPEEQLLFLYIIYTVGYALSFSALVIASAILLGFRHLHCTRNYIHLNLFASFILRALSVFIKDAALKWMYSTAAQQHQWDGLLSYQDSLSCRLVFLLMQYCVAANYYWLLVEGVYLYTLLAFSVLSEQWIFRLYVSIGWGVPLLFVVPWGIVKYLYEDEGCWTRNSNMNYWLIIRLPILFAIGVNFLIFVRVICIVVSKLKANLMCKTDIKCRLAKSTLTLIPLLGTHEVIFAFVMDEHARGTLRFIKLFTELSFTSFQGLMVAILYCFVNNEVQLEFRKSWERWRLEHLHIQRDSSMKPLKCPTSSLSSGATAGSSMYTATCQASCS

CC[C@H](C)[C@H](NC(=O)[C@H](CO)NC(=O)[C@H](Cc1ccc(O)cc1)NC(=O)[C@H](CC(=O)O)NC(=O)[C@H](CO)NC(=O)[C@@H](NC(=O)[C@H](Cc1ccccc1)NC(=O)[C@@H](NC(=O)CNC(=O)[C@H](Cc1c[nH]cn1)NC(=O)C(C)(C)NC(=O)[C@@H](N)Cc1c[nH]cn1)[C@@H](C)O)[C@@H](C)O)C(=O)N[C@@H](CC(C)C)C(=O)N[C@@H](CC(C)C)C(=O)N[C@@H](CCC(=O)O)C(=O)N[C@@H](CCCCNC(=O)COCCOCCNC(=O)COCCOCCNC(=O)CC[C@H](NC(=O)CCCCCCCCCCCCCCCCCCC(=O)O)C(=O)O)C(=O)N[C@@H](CCCCN)C(=O)N[C@@H](C)C(=O)N[C@@H](C)C(=O)N[C@@H](CCC(N)=O)C(=O)N[C@@H](CCC(=O)O)C(=O)N[C@@H](Cc1ccccc1)C(=O)N[C@H](C(=O)N[C@@H](CCC(=O)O)C(=O)N[C@@H](Cc1c[nH]c2ccccc12)C(=O)N[C@@H](CC(C)C)C(=O)N[C@@H](CC(C)C)C(=O)N[C@@H](C)C(=O)N[C@H](CCC(=O)O)C(=O)NCC(=O)N1CCC[C@H]1C(=O)N[C@@H](CO)C(=O)N[C@@H](CO)C(=O)NCC(=O)N[C@@H](C)C(=O)N1CCC[C@H]1C(=O)N1CCC[C@H]1C(=O)N1CCC[C@H]1C(=O)N[C@@H](CO)C(N)=O)C(C)C [Compound 0151]
EC50 [1]: 0.004 nM | EC50 ([2]; read-out: Activity against human GCGR (EC50 nM)): 0.055 nM

CC[C@H](C)[C@H](NC(=O)[C@H](CO)NC(=O)[C@H](Cc1ccc(O)cc1)NC(=O)[C@H](CC(=O)O)NC(=O)[C@H](CO)NC(=O)[C@@H](NC(=O)[C@H](Cc1ccccc1)NC(=O)[C@@H](NC(=O)CNC(=O)[C@H](Cc1c[nH]cn1)NC(=O)C(C)(C)NC(=O)[C@@H](N)Cc1c[nH]cn1)[C@@H](C)O)[C@@H](C)O)C(=O)N[C@@](C)(CC(C)C)C(=O)N[C@@H](CC(C)C)C(=O)N[C@@H](CCC(=O)O)C(=O)N[C@@H](CCCCNC(=O)COCCOCCNC(=O)COCCOCCNC(=O)CC[C@H](NC(=O)CCCCCCCCCCCCCCCCCCC(=O)O)C(=O)O)C(=O)N[C@@H](CCCCN)C(=O)N[C@@H](C)C(=O)N[C@@H](C)C(=O)NC(C)(CC)C(=O)N[C@@H](CCC(=O)O)C(=O)N[C@@H](Cc1ccccc1)C(=O)N[C@H](C(=O)N[C@@H](CCC(=O)O)C(=O)N[C@@H](Cc1c[nH]c2ccccc12)C(=O)N[C@@H](CC(C)C)C(=O)N[C@@H](CC(C)C)C(=O)N[C@@H](C)C(=O)NCC(=O)NCC(=O)N1CCC[C@H]1C(=O)N[C@@H](CO)C(=O)N[C@@H](CO)C(=O)NCC(=O)N[C@@H](C)C(=O)N1CCC[C@H]1C(=O)N1CCC[C@H]1C(=O)N1CCC[C@H]1C(=O)N[C@@H](CO)C(N)=O)C(C)C (stereo partly shown) [Compound 0137] (H-H[Aib]HGTFTSDYSI[αMeL]LEK([AEEA-AEEA-γGlu-C20 diacid])KAA[ξIva]EFVEWLLAGGPSSGAPPPS-NH2)
EC50 [3]: 0.013 nM | EC50 [1]: 0.001 nM | clearance ([4]; male, C57, mouse, iv): 0.163 mL/min/kg | half-life ([4]; male, C57, mouse, iv): 8.8 h

CC(C)C[C@H](NC(=O)[C@H](CC(C)C)NC(=O)[C@H](Cc1c[nH]c2ccccc12)NC(=O)[C@H](CCC(=O)O)NC(=O)[C@@H](NC(=O)[C@H](Cc1ccccc1)NC(=O)[C@H](CCC(=O)O)NC(=O)[C@H](CCC(N)=O)NC(=O)[C@H](C)NC(=O)[C@H](C)NC(=O)[C@H](CCCCN)NC(=O)[C@H](CCCCNC(=O)COCCOCCNC(=O)COCCOCCNC(=O)CC[C@H](NC(=O)CCCCCCCCCCCCCCCCCCC(=O)O)C(=O)O)NC(=O)[C@H](CCC(=O)O)NC(=O)[C@H](CC(C)C)NC(=O)[C@H](Cc1ccc(O)cc1)NC(=O)[C@](C)(CCCCN)NC(=O)[C@H](CO)NC(=O)[C@H](Cc1ccc(O)cc1)NC(=O)[C@H](CC(=O)O)NC(=O)[C@H](CO)NC(=O)[C@@H](NC(=O)[C@H](Cc1ccccc1)NC(=O)[C@@H](NC(=O)CNC(=O)[C@H](Cc1c[nH]cn1)NC(=O)C(C)(C)NC(=O)[C@@H](N)Cc1c[nH]cn1)[C@@H](C)O)[C@@H](C)O)C(C)C)C(=O)N[C@@H](C)C(=O)NCC(=O)NCC(=O)N1CCC[C@H]1C(=O)N[C@@H](CO)C(=O)N[C@@H](CO)C(=O)NCC(=O)N[C@@H](C)C(=O)N1CCC[C@H]1C(=O)N1CCC[C@H]1C(=O)N1CCC[C@H]1C(=O)N[C@@H](CO)C(N)=O [Compound 0104] (H-H[Aib]HGTFTSDYS[αMeK]YLEK([AEEA-AEEA-γGlu-C20 diacid])KAAQEFVEWLLAGGPSSGAPPPS-NH2)
EC50 [2]: 0.037 nM | AUC(0-inf) [4, 5]: 30.9 µM·h | C0 [4, 5]: 4.22 µM | clearance ([4]; mouse, male C57 mice, single intravenous dose 200 nmol/kg, plasma, read-out: CLp): 0.108 mL/min/kg | half-life ([4]; mouse, male C57 mice, single intravenous dose 200 nmol/kg, plasma, read-out: T1/2 (converted)): 11.5 h

CCC(C)(NC(=O)[C@H](C)NC(=O)[C@H](C)NC(=O)[C@H](CCCCN)NC(=O)[C@H](CCCCNC(=O)COCCOCCNC(=O)COCCOCCNC(=O)CC[C@H](NC(=O)CCCCCCCCCCCCCCCCCCC(=O)O)C(=O)O)NC(=O)[C@H](CCC(=O)O)NC(=O)[C@H](CC(C)C)NC(=O)[C@H](CC(C)C)NC(=O)[C@](C)(CCCCN)NC(=O)[C@H](CO)NC(=O)[C@H](Cc1ccc(O)cc1)NC(=O)[C@H](CC(=O)O)NC(=O)[C@H](CO)NC(=O)[C@@H](NC(=O)[C@H](Cc1ccccc1)NC(=O)[C@@H](NC(=O)CNC(=O)[C@H](CCC(N)=O)NC(=O)C(C)(C)NC(=O)[C@@H](N)Cc1ccc(O)cc1)[C@@H](C)O)[C@@H](C)O)C(=O)N[C@@H](CCC(=O)O)C(=O)N[C@@H](Cc1ccccc1)C(=O)N[C@H](C(=O)N[C@@H](CCC(=O)O)C(=O)N[C@@H](Cc1c[nH]c2ccccc12)C(=O)N[C@@H](CC(C)C)C(=O)N[C@@H](CC(C)C)C(=O)N[C@@H](C)C(=O)NCC(=O)NCC(=O)N1CCC[C@H]1C(=O)N[C@@H](CO)C(=O)N[C@@H](CO)C(=O)NCC(=O)N[C@@H](C)C(=O)N1CCC[C@H]1C(=O)N1CCC[C@H]1C(=O)N1CCC[C@H]1C(=O)N[C@@H](CO)C(N)=O)C(C)C (stereo partly shown) [Compound 0127] (H-Y[Aib]QGTFTSDYS[αMeK]LLEK([AEEA-AEEA-γGlu-C20 diacid])KAA[ξIva]EFVEWLLAGGPSSGAPPPS-NH2)
EC50 [2]: 0.037 nM

CC[C@H](C)[C@H](NC(=O)[C@](C)(CCCCN)NC(=O)[C@H](CO)NC(=O)[C@H](Cc1ccc(O)cc1)NC(=O)[C@H](CC(=O)O)NC(=O)[C@H](CO)NC(=O)[C@@H](NC(=O)[C@H](Cc1ccccc1)NC(=O)[C@@H](NC(=O)CNC(=O)[C@H](Cc1c[nH]cn1)NC(=O)C(C)(C)NC(=O)[C@@H](N)Cc1c[nH]cn1)[C@@H](C)O)[C@@H](C)O)C(=O)N[C@@H](CC(C)C)C(=O)N[C@@H](CCC(=O)O)C(=O)N[C@@H](CCCCNC(=O)COCCOCCNC(=O)COCCOCCNC(=O)CC[C@H](NC(=O)CCCCCCCCCCCCCCCCCCC(=O)O)C(=O)O)C(=O)N[C@@H](CCC(N)=O)C(=O)N[C@@H](C)C(=O)N[C@@H](C)C(=O)NC(C)(CC)C(=O)N[C@@H](CCC(=O)O)C(=O)N[C@@H](Cc1ccccc1)C(=O)N[C@H](C(=O)N[C@@H](CCC(=O)O)C(=O)N[C@@H](Cc1c[nH]c2ccccc12)C(=O)N[C@@H](CC(C)C)C(=O)N[C@@H](CC(C)C)C(=O)N[C@@H](C)C(=O)NCC(=O)NCC(=O)N1CCC[C@H]1C(=O)N[C@@H](CO)C(=O)N[C@@H](CO)C(=O)NCC(=O)N[C@@H](C)C(=O)N1CCC[C@H]1C(=O)N1CCC[C@H]1C(=O)N1CCC[C@H]1C(=O)N[C@@H](CO)C(N)=O)C(C)C (stereo partly shown) [Compound 0130] (H-H[Aib]HGTFTSDYS[αMeK]ILEK([AEEA-AEEA-γGlu-C20 diacid])QAA[ξIva]EFVEWLLAGGPSSGAPPPS-NH2)
EC50 [2]: 0.03 nM
